# Measurements: patent US10154996B2, “Fungicidal agent” (priority 2014, dated 2018)
# Values joined by “and” are separate entries in the source; they are usually repeats but may differ in a detail not shown here. Equal entries are not always repeated.
# Legend:
# Solubility in water = assay type: physicochemical; conditions: for solubility in water: maximum concentration in water
# Source text: (§1) However, this compound is very poorly soluble in aqueous media and in fats. The maximum value of solubility of the known drug in water is 0.002%, and for fats it is no more than 0.001% (octanol, which is a common model of lipids). […] Solutions with such concentration of the active substance are not sufficiently effective. At the same time the task of improvement of efficiency of use of a fungicidal agent in the form of solutions for use in human and veterinary medicine in the form of injections and inhalations and for treatment of a variety of materials and agricultural products is extremely urgent.
# [1] = Solubility in fats / oil solutions; assay type: physicochemical
# Source text: as §1
# Aspergillus niger = assay: Aspergillus pneumonia in mice, lung colonization after inhalation treatment; assay type: in vivo, white scrub mice
# Experimental: The tests were conducted on white scrub mice (female, 6-8 weeks) received from “Rappolovo” breeding nursery (Leningrad reg.), which were kept under supervision for two weeks prior to the experiments on a standard diet in regulated vivarium conditions. Selection of the animals for the experiment group was conducted by the random selection method. For propagation of aspergillus pneumonia, the white scrub mice received a single intraperitoneal injection of a cyclophosphamide solution (150 mg/kg). After 3 days, the mice received a single intraperitoneal injection of a hydrocortisone solution (250 mg/kg). Twenty-four hours after administration of hydrocortisone the mice were intranasally infected with a suspension of Aspergillus niger (approximately 10^7 cells/ml) under ether narcosis. On day 5 after infection 5 animals from each group were taken to study lung colonization (euthanasia in the rodents was performed by overdose of ether). Lung tissues were used to prepare homogenates, in which the titer of Aspergillus fungi was determined. Observation over the remaining mice was carried out for 14 days after infection to record their mortality. The following groups of animals infected with Aspergillus niger were formed in the experiment. 1. Control groups: K1, K2, K3; the animals were exposed to an aerosol of isotonic sodium chloride solution. 2. Groups E1, E2, E3; the animals were administered a 0.1% aqueous solution of the presented preparation in the form of inhalations. 3. Groups P1, P2; the animals were administered an aqueous solution of the prototype fungicidal agent in the form of inhalations in concentrations of 0.002% and 0.001% respectively. The animals were placed into an aerosol chamber (12 liters) for 30 minutes, during which period 500 mL of air pass through their lungs. “OMRON U1” (Japan) ultrasonic nebulizer was used was used as an aerosol generator. To maintain a constant aerosol concentration in the chamber, a pneumatic vortex generator was used in the pulsed spraying mode ensuring a stable aerosol with particle size of 3 microns. The animals were placed in immobilization containers and exposed to the obtained aerosol for 30 minutes 1 time per day for 3 days starting from day 1 after the infection. Samples of homogenized lung tissue were used to prepare a number of successive dilutions followed by sowing on Saburo medium.
# [2] = system: Pityrosporum orbiculare-Malassezia furfur; assay: Treatment of scaly skin disease (Tinea versicolor, Pityriasis versicolor) in patients; assay type: in vivo; conditions: cotton swab 2 times a day, 7 days
# Experimental: Treatment of a Fungal Disease of the Skin—Scaly Skin Disease (Tinea Versicolor, Pityriasis versicolor). The disease is caused by a fungus called Pityrosporum orbiculare-Malassezia furfur (mycelial form). The following was prepared for the study: A 0.1% oil (olive oil) solution of the presented preparation and a 0.002% aqueous solution of the prototype substance. As a reference olive oil was used. The study included three groups of patients. Each group included 2 patients with this pathology. Treatment duration was 7 days. The drug was applied with a cotton swab 2 times a day—in the morning and in the evening.
# Candida fungi = assay: Treatment of vulvovaginal candidiasis in patients; assay type: in vivo; conditions: douchings morning and evening, 7 days
# Experimental: Treatment of Vulvovaginal Candidiasis. In the experiment, the patients, who suffered vulvovaginal candidiasis caused by Candida fungi, were treated using the following aqueous solutions: 1) 0.1% solution of the presented drug (3 persons), 2) 0.002% solution of the prototype drug (3 people). The treatment in the form of dualfold (in the morning and in the evening) douchings was performed for 7 days. The treatment efficacy was assessed by the clinical presentation and the results mycological examination (inoculations on Saburo medium).
# [3] = system: Aspergillus niger and Penicillium notatum; assay: Protection of construction wood against fungal attacks; conditions: 5 days at 30° C.; for growth of test organisms on the boards: humid environment
# Experimental: To test the preparation boards by the dimensions of 20×40×2 cm were used. The boards were divided into three groups. Group 1: the boards were impregnated with a 0.3% aqueous solution of the presented formulation. The impregnation was carried out by twofold application of the solution by means of a diffuser with an intermediate drying. Group 2: the boards were impregnated with a 0.02% aqueous solution of the prototype preparation. The impregnation was carried out by twofold application of the solution by means of a diffuser with an intermediate drying. Group 3 (control): the boards were impregnated with distilled water. The impregnation was carried out by twofold application of water by means of a diffuser with an intermediate drying. The boards dried after treatment were soaked in water for two hours, after which they were coated with Aspergillus niger and Penicillium notatum fungi cultures at opposite ends of one side. The boards were placed in thermostats for 5 days at the temperature of 30° C. in a humid environment. After incubation, the boards were visually inspected and inoculations were made from their surface onto a nutrient medium (Sabouraud).
# Leveillula taurica = assay: Treatment of powdery mildew on tuberous begonias; assay type: in vivo, Begonia tuberosa hybridum; conditions: spray of 0.1% aqueous solution once a day for 7 days
# Experimental: The study was conducted on tuberous begonias (Begonia tuberosa hybridum), infected with powdery mildew. Powdery mildew affects many plants, including trees and shrubs. Powdery mildew affects chrysanthemums, begonias, roses; at that a white, sometimes darkening, plaque appears green parts of the plant. The disease is transmitted by airborne spores. The tested plants were infected with spores of a fungus (Leveillula taurica) when exposed up to appearance of a white plaque on the leaves. Three leaves on each plant were infected. After appearance of the plaque the plants in control group (three plants) were isolated from the three plants treated with a spray of a 0.1% aqueous solution of the presented preparation. The treatment was performed once a day for 7 days. After the treatment was complete, observation over the plants was continued for another three weeks.
# [4] = system: fungi of the Microsporum genus; assay: Treatment of ringworm in cats; assay type: in vivo
# Source text: The preparation was used in treatment of ringworm in cats (two animals) caused by fungi of the Microsporum genus and characterized by appearance of small round bald patches on the face and ears of the animal. The preparation in the form of a 0.1% aqueous solution was applied onto the affected area three times a day for 6 days.
# [5] = lung homogenate day 5, 0.001% aqueous solution, inhalation, group P2
# [6] = lung homogenate day 5, 0.002% aqueous solution, inhalation, group P1
# [7] = boards impregnated with 0.02% aqueous solution
# [8] = 0.1% aqueous solution on affected area three times a day for 6 days
# [9] = boards impregnated with 0.3% aqueous solution
compound,measurement,setting,value
"2.4-dioxo-5-(2-hydroxy-3.5-dichlorobenzylidene)amino-1.3-pyrimidine [Prototype, reference compound]",solubility in water,Solubility in water,0.002%
same,solubility in fats,[1]; octanol as common model of lipids,no more than 0.001%
same,Number of colonies (in different dilutions) 10^−2,Aspergillus niger; [5],37
same,Number of colonies (in different dilutions) 10^−4,Aspergillus niger; [5],2
same,Number of colonies (in different dilutions) 10^−2,Aspergillus niger; [6],26
same,Number of colonies (in different dilutions) 10^−4,Aspergillus niger; [6],1
same,Complete cure,[2]; 0.002% aqueous solution,Absent
same,Complete cure,Candida fungi; 0.002% aqueous solution,Not reached
same,Mycological cure (reduction in the number of fungi inoculated on a solid medium),Candida fungi; 0.002% aqueous solution,1.7-fold reduction in the number of
same,growth from inoculations on nutrient medium (Sabouraud),[3]; [7],later spread in the nutrient medium
same,growth of test organisms on the boards,[3]; [7],a growth of the inoculated test bacteria can be detected
N#CSc1cc(C=Nc2c[nH]c(=O)nc2O)c(O)c(SC#N)c1 [presented preparation],solubility in water,Solubility in water,0.3-0.4%
same,increase in solubility versus prototype,Solubility in water; water and oil solutions,more than a hundred-fold
same,solubility for oil solutions,[1]; oil solutions,0.25-0.3%
same,Number of colonies (in different dilutions) 10^−2,"Aspergillus niger; lung homogenate day 5, Saburo medium, 0.1% aqueous solution, inhalation 30 min once daily for 3 days, groups E1-E3",2 and 4
same,Complete cure,[2]; 0.1% oil (olive oil) solution,Reached
same,Complete cure,Candida fungi; 0.1% aqueous solution,Reached
same,Mycological cure (reduction in the number of fungi inoculated on a solid medium),Candida fungi; 0.1% aqueous solution,A tenfold reduction in the number
same,growth of fungi after flushing off the leaf and inoculation on a nutrient medium,Leveillula taurica,no growth of the fungi was observed
same,increase or spread of the fungus on the plant,Leveillula taurica; observation three more weeks,no increase or spread of the fungus to other parts of the plant occur
same,inflammatory manifestations,[4]; [8],disappearance of inflammatory manifestations was reported
same,size of affected areas,[4]; [8],the affected areas ceased to increase
same,growth from inoculations of swabs from the affected area after treatment,"[4]; 0.1% aqueous solution three times a day for 6 days, nutrient media",did not lead to growth on nutrient media
same,growth from control inoculations on nutrient medium (Sabouraud),[3]; [9],did not lead to a growth on the nutrient medium
same,growth of test organisms on the boards,[3]; [9],No growth of the test organisms was registered
